Among the data in US20110263593A1, “NOVEL IMIDAZO[1,2-a]PYRIMIDINE DERIVATIVES, METHOD FOR THE PREPARATION THEREOF, USE THEREOF AS MEDICAMENTS, PHARMACEUTICAL COMPOSITIONS AND NOVEL USE, IN PARTICULAR AS MET INHIBITORS” (sanofi-aventis, priority 2008, published 2011) are IC50 and melting point values, retold here.

The target of series [1] is T1, MET (Homo sapiens, UniProt P08581). The experiment in a line: Test B: inhibition of the autophosphorylation of MET, ELISA technique (pppY1230, 1234, 1235) in MKN45 cells. It is filed as cell-based. On the set-up: endogenous in cells; host or cells: MKN45 cells. As to conditions: 1 h treatment, phosphoMET ELISA. The procedure: B) Test B: Inhibition of the Autophosphorylation of MET; ELISA Technique (pppY1230, 1234, 1235)
a) Cell lysates: Seed MKN45 cells into 96-well plates (Cell coat BD polylysine) at 20 000 cells/well in 200 μl in RPMI medium+10% FCS+1% L-glutamine. Leave to adhere for 24 hours in an incubator.
The cells are treated the day after seeding with the products at 6 concentrations in duplicate for 1 h. At least 3 control wells are treated with the same final amount of DMSO.
Product dilution: Stock at 10 mM in pure DMSO—range from 10 mM to 30 μM with an increment of 3 in pure DMSO—intermediate 1/50 dilutions in culture medium and then removal of 10 μl added directly to the cells (200 μl): final range from 10 000 to 30 nM.
At the end of the incubation, carefully remove the supernatant and rinse with 200 μl of PBS. Next, place 100 μl of lysis buffer directly in the wells on ice and incubate at 4° C. for 30 minutes. Lysis buffer: 10 mM Tris HCl, pH 7.4, 100 mM NaCl, 1 mM EDTA, 1 mM EGTA, 1% Triton X-100, 10% glycerol, 0.1% SDS, 0.5% deoxycholate, 20 mM NaF, 2 mM Na3VO4, 1 mM PMSF and cocktail of antiproteases.
The 100 μl of lysates are transferred into a V-bottomed polypropylene plate and the ELISA is performed immediately, or the plate is frozen at −80° C.
b) PhosphoMET ELISA BioSource Kit KH00281
Into each well of the kit plate, add 70 μl of kit dilution buffer+30 μl of cell lysate or 30 μl of lysis buffer for the blanks. Incubate for 2 h with gentle agitation at ambient temperature.
Rinse the wells 4 times with 400 μl of kit washing buffer. Incubate with 100 μl of anti-phospho MET antibody for 1 hour at ambient temperature.
Rinse the wells 4 times with 400 μl of kit washing buffer. Incubate with 100 μl of anti-rabbit HRP antibody for 30 minutes at ambient temperature (except for the wells of chromogen alone).
Rinse the wells 4 times with 400 μl of kit washing buffer. Introduce 100 μl of chromogen and incubate for 30 minutes in the dark at ambient temperature.
Stop the reaction with 100 μl of stop solution. Read without delay at […], 0.1 second on Wallac Victor plate reader.
Target sequence in this assay (P08581 25-1390): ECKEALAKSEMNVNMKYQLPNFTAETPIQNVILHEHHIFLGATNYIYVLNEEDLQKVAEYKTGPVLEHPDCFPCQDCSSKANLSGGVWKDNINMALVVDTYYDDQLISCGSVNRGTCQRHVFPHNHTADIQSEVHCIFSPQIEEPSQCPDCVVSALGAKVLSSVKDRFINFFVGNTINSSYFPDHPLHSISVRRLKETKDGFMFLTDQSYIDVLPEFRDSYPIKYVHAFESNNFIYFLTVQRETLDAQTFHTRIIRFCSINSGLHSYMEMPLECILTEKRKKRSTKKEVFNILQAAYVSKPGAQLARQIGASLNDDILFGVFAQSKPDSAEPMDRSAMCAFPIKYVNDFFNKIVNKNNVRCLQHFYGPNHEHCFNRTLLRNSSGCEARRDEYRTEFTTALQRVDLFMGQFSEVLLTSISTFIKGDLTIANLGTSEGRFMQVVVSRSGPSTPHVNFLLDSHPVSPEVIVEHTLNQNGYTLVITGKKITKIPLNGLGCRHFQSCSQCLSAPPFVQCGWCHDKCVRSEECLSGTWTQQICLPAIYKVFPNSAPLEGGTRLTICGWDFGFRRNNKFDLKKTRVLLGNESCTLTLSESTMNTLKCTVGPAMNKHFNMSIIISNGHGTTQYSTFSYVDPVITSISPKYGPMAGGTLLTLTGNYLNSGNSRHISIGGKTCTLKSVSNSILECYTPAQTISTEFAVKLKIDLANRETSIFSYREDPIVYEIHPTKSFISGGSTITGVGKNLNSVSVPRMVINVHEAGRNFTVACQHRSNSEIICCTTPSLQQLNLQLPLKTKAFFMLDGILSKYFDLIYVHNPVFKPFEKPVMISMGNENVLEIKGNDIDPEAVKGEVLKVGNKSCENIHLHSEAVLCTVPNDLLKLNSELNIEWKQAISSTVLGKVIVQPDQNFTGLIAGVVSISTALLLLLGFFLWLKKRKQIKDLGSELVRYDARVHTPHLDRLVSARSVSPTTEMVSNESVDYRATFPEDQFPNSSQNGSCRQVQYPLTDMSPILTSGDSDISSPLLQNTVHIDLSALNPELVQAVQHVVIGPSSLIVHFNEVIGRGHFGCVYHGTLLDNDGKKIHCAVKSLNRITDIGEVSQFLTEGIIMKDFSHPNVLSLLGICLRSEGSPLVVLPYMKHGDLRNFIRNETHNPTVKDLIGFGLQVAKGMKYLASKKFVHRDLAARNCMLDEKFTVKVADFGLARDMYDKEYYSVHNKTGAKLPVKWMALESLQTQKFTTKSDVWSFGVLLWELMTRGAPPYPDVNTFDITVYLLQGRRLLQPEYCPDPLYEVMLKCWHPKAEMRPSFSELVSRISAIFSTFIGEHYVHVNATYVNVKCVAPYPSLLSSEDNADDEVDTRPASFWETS

For series [2], the target named is T1, MET. The experiment in a line: Test A: HTRF MET assay in 96-well format. It is filed as biochemical. The arrangement: The His-Tev-MET (956-1390) recombinant DNA in pFastBac (Invitrogen) is transfected into insect cells; His (N, cleaved yes); Tev cleavage site (N, cleaved yes); made in house; host or cells: SF21 insect cells (baculovirus, pFastBac). Conditions: 5 nM MET, 10 μM ATP. The procedure: I) Expression and Purification of MET, Cytoplasmic Domain
The His-Tev-MET (956-1390) recombinant DNA in pFastBac (Invitrogen) is transfected into insect cells and, after several viral amplification stages, the final baculovirus stock is tested for the expression of the protein of interest.
After infection for 72 h at 27° C. with the recombinant virus, the SF21 cell cultures are harvested by centrifugation and the cell pellets are stored at −80° C.
The cell pellets are resuspended in lysis buffer (buffer A [50 mM HEPES, pH 7.5, 250 mM NaCl, 10% glycerol, 1 mM TECP]; + cocktail of protease inhibitors, Roche Diagnostics, without EDTA, ref. 1873580), stirred at 4° C. until the mixture is homogeneous and then lysed mechanically using a “Dounce” type apparatus.
After centrifugation, the lysis supernatant is incubated for 2 h at 4° C. with nickel chelate resin (His-Trap 6 Fast Flow™, GE HealthCare). After washing with 20 volumes of buffer A, the suspension is packed into a column, and the proteins are eluted with a gradient of buffer B (buffer A+290 mM imidazole).
The fractions comprising the protein of interest for the purpose of electrophoretic analysis (SDS PAGE) are combined, concentrated by ultrafiltration (10 kDa cut-off) and injected onto an exclusion chromatography column (Superdex™ 200, GE HealthCare) equilibrated in buffer A.
After enzymatic cleavage of the histidine tag, the protein is reinjected onto a new IMAC nickel chelate chromatography column (His-Trap 6 Fast Flow™, GE HealthCare) equilibrated in buffer A. The fractions eluted with a gradient of buffer B and comprising the protein of interest after electrophoresis (SDS PAGE) are finally combined and conserved at −80° C.
For the production of autophosphorylated protein, the previous fractions are incubated for 1 h at ambient temperature after the addition of 2 mM ATP, 2 mM MgCl2, and 4 mM Na3VO4. After the reaction has been stopped with 5 mM of EDTA, the reaction mixture is injected onto a HiPrep desalifying column (GE HealthCare) preequilibrated in buffer A+4 mM Na3VO4, and the fractions comprising the protein of interest (SDS PAGE analysis) are combined and stored at −80° C. The degree of phosphorylation is verified by mass spectrometry (LC-MS) and by peptide mapping.
A) Test A: HTRF MET Assay in 96-Well Format
MET at a final concentration of 5 nM is incubated in a final volume of 50 μl of enzymatic reaction in the presence of the test molecule (for a final concentration range of from 0.17 nM to 10 μM, 3% DMSO final concentration) in 10 mM MOPS buffer, pH 7.4, 1 mM DTT, 0.01% Tween 20. The reaction is initiated with the substrate solution to obtain final concentrations of 1 μg/ml poly-(GAT), 10 μM ATP and 5 mM MgCl2. After incubation for 10 min at ambient temperature, the reaction is stopped with a 30 μl mix so as to obtain a final solution of 50 mM Hepes, pH 7.5, 500 mM potassium fluoride, 0.1% BSA and 133 mM EDTA in the presence of 80 ng of streptavidin 61SAXLB Cis-Bio Int. and 18 ng of anti-phosphotyrosine Mab PT66-Europium Cryptate per well. After incubation for 2 hours at ambient temperature, the reading is taken at 2 wavelengths, 620 nm and 665 nm, on a reader for the TRACE/HTRF technique and the % inhibition is calculated from the 665/620 ratios.
Target sequence in this assay (P08581 956-1390): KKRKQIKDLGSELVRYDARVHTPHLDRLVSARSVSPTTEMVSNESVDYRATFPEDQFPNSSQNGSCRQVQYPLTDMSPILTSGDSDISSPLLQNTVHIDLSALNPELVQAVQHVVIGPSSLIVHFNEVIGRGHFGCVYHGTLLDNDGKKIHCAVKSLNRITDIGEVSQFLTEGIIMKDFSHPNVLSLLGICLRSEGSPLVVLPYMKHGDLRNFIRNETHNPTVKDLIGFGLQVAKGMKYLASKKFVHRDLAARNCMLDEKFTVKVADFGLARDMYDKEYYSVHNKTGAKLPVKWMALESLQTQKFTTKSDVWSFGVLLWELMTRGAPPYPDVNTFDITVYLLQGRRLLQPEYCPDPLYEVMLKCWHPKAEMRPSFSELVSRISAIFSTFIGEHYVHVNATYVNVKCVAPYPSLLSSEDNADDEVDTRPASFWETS

Series [3] relates to HCT116 cells and MKN45 cells. The experiment in a line: Test C: measurement of cell proliferation by 14C-thymidine pulse. It is filed as cell-based. Conditions: 14C-thymidine incorporation, 96 h of treatment; cell line not stated (HCT116 and MKN45 in method). As to the method:
C) Test C: Measurement of cell proliferation by ^14C-thymidine pulse
The cells are seeded into Cytostar 96-well plates in 180 μl for 4 hours at 37° C. and 5% CO2: HCT116 cells at a rate of 2500 cells per well in DMEM medium+10% foetal calf serum+1% L-glutamine and MKN45 cells at a rate of 7500 cells per well in RPMI medium+10% foetal calf serum+1% L-glutamine. After these 4 hours of incubation, the products are added in 10 μl as a 20-fold concentrated solution according to the dilution method mentioned for the ELISA. The products are tested at 10 concentrations in duplicate from 10 000 nM to 0.3 nM with an increment of 3.
After treatment for 72 h, add 10 μl of ^14C-thymidine at 10 μCi/ml to obtain 0.1 μCi per well. The ^14C-thymidine incorporation is measured on a Micro-Beta machine (Perkin-Elmer) after 24 hours of pulse and 96 h of treatment.
All the stages of the assay are automated on BIOMEK 2000 or TECAN stations.

On to `CC(=O)Nc1nc2ccc(Sc3cnc4ncccn34)cc2s1` [Example 3, N-[6-(imidazo[1,2-a]pyrimidin-3-ylsulphanyl)-1,3-benzothiazol-2-yl]acetamide], for which the melting point is more than 260 °C. This compound also came in with an IC50 against MET [1] of less than 100 nM. Besides, the concentration for half-maximal inhibition (IC50) at MET [2] was less than 100 nM. In series [3], this compound displayed a 50% inhibitory concentration (IC50) of less than 1000 nM.
For the compound `O=C(Nc1nc2ccc(Sc3cnc4ncccn34)cc2s1)C1CCOCC1` [Example 27, N-[6-(imidazo[1,2-a]pyrimidin-3-ylsulphanyl)-1,3-benzothiazol-2-yl]tetrahydro-2H-pyran-4-carboxamide], the melting point amounted to 270 °C. This compound displayed a concentration for half-maximal inhibition (IC50) on MET [1] of less than 500 nM. At MET [2], the half-inhibitory concentration (IC50) is less than 100 nM. Also, in series [3], the IC50 was less than 1000 nM.
The matching figures for `CCN(CC)CC(=O)Nc1nc2ccc(Sc3cnc4ncccn34)cc2s1` [Example 17, N2,N2-diethyl-N-[6-(imidazo[1,2-a]pyrimidin-3-ylsulphanyl)-1,3-benzothiazol-2-yl]glycinamide]: 180 °C, less than 500 nM, less than 100 nM and less than 1000 nM.
For `O=C(Nc1nc2ccc(Sc3cnc4ncc(NCc5ccccc5)cn34)cc2s1)C1CC1` [Example 26, N-(6-{[6-(benzylamino)imidazo[1,2-a]pyrimidin-3-yl]sulphanyl}-1,3-benzothiazol-2-yl)cyclopropanecarboxamide], in that order: more than 260 °C, less than 100 nM, less than 100 nM and less than 1000 nM.
